Data from PubChem BioAssay AID2305 (GlaxoSmithKline (GSK), 2010).

These compounds were tested on P. falciparum 3D7 growth, pLDH absorbance (assay: P. falciparum 3D7 growth inhibition, dose response, strain 3D7 (AID 2305)).

Point of comparison: `Cc1noc(C)c1-c1ccc2c(Nc3ccc(C#N)cc3)c(C(N)=O)cnc2c1`, IC50 750 nM. Against it:
- CCCNc1nc(NCc2c(C)cccc2C)nc(NC(C)(C)C)n1 — within 1.5-fold, 860 nM
- COc1ccc(NC(=O)CSc2nc(-c3ccccc3Cl)ns2)cc1 — within 1.5-fold, 1040 nM
- CCN(CC)CCN(Cc1ccc(-c2ccc(C(F)(F)F)cc2)cc1)C(=O)Cn1c(CCc2cc(F)ccc2F)nc(=O)c2ccccc21 — within 1.5-fold, 830 nM
- Cc1[nH]c(C)c(-c2ccc(-c3cccc(OC(F)(F)F)c3)nc2)c(=O)c1Cl — 11-fold lower, 70 nM
- CN1C(=CC(=O)NC(=O)c2ccccc2)C(C)(C)c2ccccc21 — within 1.5-fold, 640 nM
- Cc1nc(C(C)Nc2nncc(-c3ccc(Cl)cc3)n2)cs1 (stereo not given) — 1.8-fold higher, 1330 nM
- N#Cc1ccc(NC(=O)c2ccc(C(=O)NCCCCN3CCC(c4ccc5c(c4OCCOC4CCCCO4)CCCC5)CC3)cc2)cc1 (stereo not given) — within 1.5-fold, 580 nM
- COc1cccc(NC(=O)Cn2c(C)c(C#N)c3ccccc32)c1 — within 1.5-fold, 880 nM
- CC(CN1CCN(C)CC1)C(=O)Nc1cccc(-c2cccc(-c3nc4ccccc4[nH]3)c2)c1 (stereo not given) — within 1.5-fold, 1010 nM
- COc1ccc(-c2ccc(NC(=O)c3ccc(C#N)cc3)cc2)cc1CN1CCCC1 — within 1.5-fold, 870 nM
- CCNc1cc(C)nc(Nc2ccc(NC(=O)C3CCCC3)cc2)n1 — within 1.5-fold, 1120 nM
- O=C(/C=C/c1ccc(Cl)c(Cl)c1)N1CCC(CN2CCC(c3c[nH]c4ccc(O)cc34)CC2)CC1 — within 1.5-fold, 780 nM
- O=C(Cc1cccc(Cl)c1)Nc1cccc(-c2c[nH]c3nc(Nc4cccc(O)c4)ncc23)c1 — within 1.5-fold, 730 nM
- COC(=O)c1ccc2nc(-c3cc(-c4cccc(-c5ccccc5)c4)cnc3N)[nH]c2c1 — 3.6-fold lower, 210 nM
- COc1ccc(-c2ccc(NC(=O)c3cccc(F)c3)cc2)cc1CNC(C)C — within 1.5-fold, 810 nM
- Cc1ccccc1-c1cc(=O)c2cc(NC(=O)c3cccs3)ccc2o1 — 3.4-fold lower, 220 nM
- Cc1cc(N2CCCC2)nc(Nc2ccc(NC(=O)c3ccc(Br)o3)cc2)n1 — within 1.5-fold, 620 nM
- O=C(Cn1c(CCc2cccc(F)c2F)cc(=O)c2cccnc21)N(CCN1CCCC1)Cc1ccc(-c2ccc(C(F)(F)F)cc2)cc1 — within 1.5-fold, 890 nM
- Fc1ccc2nc(-c3cccc(-c4cccc(CN5CCN(c6ccncc6)CC5)c4)c3)[nH]c2c1 — 5-fold lower, 150 nM
- Cc1ccc(O)c(C(=O)c2cnc3c(c2)c(-c2ccc(F)cc2)c(C#N)c(=O)n3C)c1 — within 1.5-fold, 970 nM
- COc1ccc(CC(=O)Nc2ccc(Nc3nc(C)cc(N4CCCC4)n3)cc2)cc1 — within 1.5-fold, 1110 nM
- Cc1cc(O)cc2c(C3CCN(CC4CCC(NC(=O)/C=C/c5ccccc5Cl)CC4)CC3)c[nH]c12 (stereo not given) — within 1.5-fold, 900 nM
- c1ccc(COc2ccc(Nc3ncnc4ccc(-c5ccc(CN6CCSCC6)o5)cc34)cc2)cc1 — within 1.5-fold, 830 nM
- CCCc1cc(Cc2cnc(N)nc2N)cc(CCC)c1OCCCCC(=O)O — 3.8-fold lower, 200 nM
- COCCNCc1cccc(-c2ccc3c(Nc4ccc(Oc5cccnc5)cc4)ccnc3c2)c1 — 4.2-fold lower, 180 nM
- Cc1cc(Cl)ccc1N(Cc1ccccc1)c1ccnc(Cl)n1 — within 1.5-fold, 860 nM
- O=C(NC1CCN(Cc2ccccc2O)C1)c1ccc(Cl)c(Cl)c1 (stereo not given) — within 1.5-fold, 890 nM
- CC(=O)Oc1cc(C)ccc1C1CCN(CCCCNC(=O)c2ccc(-c3ccc(C(F)(F)F)cc3)cc2)CC1 — within 1.5-fold, 650 nM
- Cc1ccccc1N1CCN(c2ccc(C(=O)Nc3ccccc3)cn2)CC1 — within 1.5-fold, 590 nM
- Cc1nnc2sc(-c3cccc(NC(=O)c4ccc(N5CCCCC5)c([N+](=O)[O-])c4)c3)nn12 — 1.7-fold higher, 1300 nM
- COc1ccc(O)cc1Cc1cnc2nc(N)nc(N)c2c1C — 75-fold lower, 10 nM
- CC(C)c1ccc(CN2CCC(CNC(=O)c3cc(-c4cccc(C(F)(F)F)c4)cs3)C2)cc1 (stereo not given) — within 1.5-fold, 910 nM
- Cc1noc(-c2ccc3c(c2)CCN(CCC2CCC(NC(=O)c4cc5ccccc5[nH]4)CC2)CC3)n1 (stereo not given) — within 1.5-fold, 690 nM
- CCCCCCNCCOc1ccc(-c2nc(-c3ccccc3)c(-c3ccccc3)[nH]2)cc1 — within 1.5-fold, 670 nM
- NS(=O)(=O)c1cccc(Nc2nc(N[C@@H]3CCNC3)nc3cc[nH]c(=O)c23)c1 — within 1.5-fold, 940 nM
- O=C(Nc1ccc(S(=O)(=O)N2CCCCCC2)cc1)c1cc(-c2ccccc2O)n[nH]1 — within 1.5-fold, 720 nM
- COc1ccc(-c2nc(NC(=O)CS(=O)(=O)c3ccc(C)cc3)sc2C)cc1 — 1.9-fold lower, 400 nM
- FC(F)(F)c1ccc2c(NCCCNc3ccnc4cc(C(F)(F)F)ccc34)ccnc2c1 — 25-fold lower, 30 nM
- Cc1ccc2nc(-c3cc(-c4cccc(CCN5CCOCC5)c4)cnc3N)[nH]c2c1 — 4.4-fold lower, 170 nM
- Cc1ccc2c(c1)NC[C@@]21CCN(C[C@@H](O)C2CCN(c3ccnc(Cl)c3)CC2)C[C@@H]1C — within 1.5-fold, 940 nM
- CC(=O)N(Cc1cccc(-c2cccc(CNCCc3ccccc3)c2)c1)C1CCN(Cc2ccccc2)CC1 — within 1.5-fold, 670 nM
- Oc1[nH]c2ccccc2c1N=NC(=S)N1CCOCC1 — within 1.5-fold, 910 nM
- C=CC(=O)Nc1ccc(Cl)cc1C(O)c1ccccc1 (stereo not given) — 4.2-fold lower, 180 nM
- Nc1cc(-c2ccc3ccccc3c2)nc2ccccc12 — within 1.5-fold, 700 nM
- CCCc1ccc(N2C(N)=NC(N)=NC2(C)C)cc1 — 25-fold lower, 30 nM
- CN(C)C(=S)N=Nc1c(O)[nH]c2ccc(OC(F)(F)F)cc12 — within 1.5-fold, 1020 nM
- COc1cccc(OC)c1OCCCOc1c(C)nc(N)nc1N — 1.6-fold lower, 460 nM
- CC(=O)Nc1ccc(OCCCCN(Cc2ccccc2C(F)(F)F)c2ccc(C#N)c(C(F)(F)F)c2)cc1 — 1.9-fold higher, 1390 nM
- Cc1[nH]c(C)c(-c2ccc(Oc3cccc(OC(F)(F)F)c3)cc2)c(=O)c1Cl — within 1.5-fold, 680 nM
